Source: patent publication US12568972B2, “Pyridazinol compounds and derivatives, preparation methods, herbicidal compositions and applications thereof” (Qingdao Kingagroot Chemical Compound Co., Ltd., priority 2018, dated 2026)

Experiments:
Assay in all cases: Post-emergence test, weed control effect
Assay type in all cases: in vivo
Details in all cases: after 3 weeks
Amaranthus retroflexus = test system: Amaranthus retroflexus
How it was run: (§1)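 Greenhouse pots, soil-sown, 0.5-2 cm cover; foliar spray at 2-3 leaf stage (2-3 wk post-sowing); cpd in acetone + Tween-80, water-diluted, + 80% veg. oil methyl ester synergist 1500 g/ha; 3 wk culture; fresh-wt inhibition graded 0-10.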

Rorippa indica = test system: Rorippa indica
How it was run: as §1

Chenopodiaceae = test system: Chenopodiaceae
How it was run: as §1

Veronica polita = test system: Veronica polita
How it was run: as §1

Oc1cc(C(F)(F)F)nnc1-c1ccncc1Cl [Compound 279]
10: weed control effect (activity level), Amaranthus retroflexus (Amaranthus retroflexus; dose 2000 g/ha) | weed control effect (activity level), Rorippa indica (Rorippa indica; dose 2000 g/ha) | weed control effect (activity level), Chenopodiaceae (Chenopodiaceae; dose 2000 g/ha) | weed control effect (activity level), Veronica polita (Veronica polita; dose 2000 g/ha)

CC(=O)Oc1cc(C(F)(F)F)nnc1-c1cccc(F)c1 [Compound 1-1]
10: weed control effect, Amaranthus retroflexus (activity level) (Amaranthus retroflexus; Dose 3000 g/ha) | weed control effect, Rorippa indica (activity level) (Rorippa indica; Dose 3000 g/ha) | weed control effect, Chenopodiaceae (activity level) (Chenopodiaceae; Dose 3000 g/ha) | weed control effect, Veronica polita (activity level) (Veronica polita; Dose 3000 g/ha)

COc1ccc(-c2nnc(C(F)(F)F)cc2O)cc1[N+](=O)[O-] [Compound 768]
10: weed control effect (activity level), Amaranthus retroflexus (Amaranthus retroflexus; Dose 3000 g/ha) | weed control effect (activity level), Rorippa indica (Rorippa indica; Dose 3000 g/ha) | weed control effect (activity level), Chenopodiaceae (Chenopodiaceae; Dose 3000 g/ha) | weed control effect (activity level), Veronica polita (Veronica polita; Dose 3000 g/ha)

CCc1cccc(-c2nnc(C(F)(F)F)cc2OS(=O)(=O)c2nccs2)c1 [Compound 1-145]
10: weed control effect, Amaranthus retroflexus (activity level) (Amaranthus retroflexus; Dose 3000 g/ha) | weed control effect, Rorippa indica (activity level) (Rorippa indica; Dose 3000 g/ha) | weed control effect, Chenopodiaceae (activity level) (Chenopodiaceae; Dose 3000 g/ha) | weed control effect, Veronica polita (activity level) (Veronica polita; Dose 3000 g/ha)

O=[N+]([O-])c1ccc(F)c(-c2nnc(C(F)(F)F)cc2O)c1 [Compound 61]
10: weed control effect (activity level), Amaranthus retroflexus (Amaranthus retroflexus; dose 1000 g/ha) | weed control effect (activity level), Rorippa indica (Rorippa indica; dose 1000 g/ha) | weed control effect (activity level), Chenopodiaceae (Chenopodiaceae; dose 1000 g/ha) | weed control effect (activity level), Veronica polita (Veronica polita; dose 1000 g/ha)

Cc1ccc(Cl)c(-c2nnc(C(F)(F)F)cc2O)c1F [Compound 82]
10: weed control effect (activity level), Amaranthus retroflexus (Amaranthus retroflexus; dose 1000 g/ha) | weed control effect (activity level), Rorippa indica (Rorippa indica; dose 1000 g/ha) | weed control effect (activity level), Chenopodiaceae (Chenopodiaceae; dose 1000 g/ha) | weed control effect (activity level), Veronica polita (Veronica polita; dose 1000 g/ha)

COCC(=O)Oc1cc(C(F)(F)F)nnc1-c1ccc(F)c(F)c1 [Compound 1-71]
10: weed control effect, Amaranthus retroflexus (activity level) (Amaranthus retroflexus; Dose 3000 g/ha) | weed control effect, Rorippa indica (activity level) (Rorippa indica; Dose 3000 g/ha) | weed control effect, Chenopodiaceae (activity level) (Chenopodiaceae; Dose 3000 g/ha) | weed control effect, Veronica polita (activity level) (Veronica polita; Dose 3000 g/ha)

Oc1cc(C(F)(F)F)nnc1-c1ccc2cc(Cl)ccc2c1 [Compound 371]
10: weed control effect (activity level), Amaranthus retroflexus (Amaranthus retroflexus; dose 2000 g/ha) | weed control effect (activity level), Rorippa indica (Rorippa indica; dose 2000 g/ha) | weed control effect (activity level), Chenopodiaceae (Chenopodiaceae; dose 2000 g/ha) | weed control effect (activity level), Veronica polita (Veronica polita; dose 2000 g/ha)

COc1cccc(-c2nnc(C(F)(F)F)cc2O)c1F [Compound 68]
10: weed control effect (activity level), Amaranthus retroflexus (Amaranthus retroflexus; dose 1000 g/ha) | weed control effect (activity level), Rorippa indica (Rorippa indica; dose 1000 g/ha) | weed control effect (activity level), Chenopodiaceae (Chenopodiaceae; dose 1000 g/ha) | weed control effect (activity level), Veronica polita (Veronica polita; dose 1000 g/ha)

O=S(=O)(Oc1cc(C(F)(F)F)nnc1-c1ccc(C(F)(F)F)cc1)c1cccc2ccccc12 [Compound 1-144]
10: weed control effect, Amaranthus retroflexus (activity level) (Amaranthus retroflexus; Dose 3000 g/ha) | weed control effect, Rorippa indica (activity level) (Rorippa indica; Dose 3000 g/ha) | weed control effect, Chenopodiaceae (activity level) (Chenopodiaceae; Dose 3000 g/ha) | weed control effect, Veronica polita (activity level) (Veronica polita; Dose 3000 g/ha)

COc1ncccc1-c1nnc(C(F)(F)F)cc1O [Compound 227]
10: weed control effect (activity level), Amaranthus retroflexus (Amaranthus retroflexus; dose 2000 g/ha) | weed control effect (activity level), Rorippa indica (Rorippa indica; dose 2000 g/ha) | weed control effect (activity level), Chenopodiaceae (Chenopodiaceae; dose 2000 g/ha) | weed control effect (activity level), Veronica polita (Veronica polita; dose 2000 g/ha)

Fc1ccc(-c2nnc(C(F)(F)F)cc2Oc2ccccc2)cc1F [Compound 1-208]
10: weed control effect, Amaranthus retroflexus (activity level) (Amaranthus retroflexus; Dose 3000 g/ha) | weed control effect, Rorippa indica (activity level) (Rorippa indica; Dose 3000 g/ha) | weed control effect, Chenopodiaceae (activity level) (Chenopodiaceae; Dose 3000 g/ha) | weed control effect, Veronica polita (activity level) (Veronica polita; Dose 3000 g/ha)

Oc1cc(C(F)(F)F)nnc1-c1cc(OC(F)F)c(Cl)cc1Cl [Compound 165]
10: weed control effect (activity level), Amaranthus retroflexus (Amaranthus retroflexus; dose 2000 g/ha) | weed control effect (activity level), Rorippa indica (Rorippa indica; dose 2000 g/ha) | weed control effect (activity level), Chenopodiaceae (Chenopodiaceae; dose 2000 g/ha) | weed control effect (activity level), Veronica polita (Veronica polita; dose 2000 g/ha)

Oc1cc(C(F)(F)F)nnc1-c1ccccc1Br [Compound 772]
10: weed control effect (activity level), Amaranthus retroflexus (Amaranthus retroflexus; Dose 3000 g/ha) | weed control effect (activity level), Rorippa indica (Rorippa indica; Dose 3000 g/ha) | weed control effect (activity level), Chenopodiaceae (Chenopodiaceae; Dose 3000 g/ha) | weed control effect (activity level), Veronica polita (Veronica polita; Dose 3000 g/ha)

COc1cc(-c2nnc(C(F)(F)F)cc2O)n(C)n1 [Compound 782]
10: weed control effect (activity level), Amaranthus retroflexus (Amaranthus retroflexus; Dose 3000 g/ha) | weed control effect (activity level), Rorippa indica (Rorippa indica; Dose 3000 g/ha) | weed control effect (activity level), Chenopodiaceae (Chenopodiaceae; Dose 3000 g/ha) | weed control effect (activity level), Veronica polita (Veronica polita; Dose 3000 g/ha)

CCCOC(=S)Oc1cc(C(F)(F)F)nnc1-c1ccc(OC)cc1 [Compound 1-156]
10: weed control effect, Amaranthus retroflexus (activity level) (Amaranthus retroflexus; Dose 3000 g/ha) | weed control effect, Rorippa indica (activity level) (Rorippa indica; Dose 3000 g/ha) | weed control effect, Chenopodiaceae (activity level) (Chenopodiaceae; Dose 3000 g/ha) | weed control effect, Veronica polita (activity level) (Veronica polita; Dose 3000 g/ha)

Oc1cc(C(F)(F)F)nnc1-c1cccc(I)c1 [Compound 29]
10: weed control effect (activity level), Amaranthus retroflexus (Amaranthus retroflexus; dose 1000 g/ha) | weed control effect (activity level), Rorippa indica (Rorippa indica; dose 1000 g/ha) | weed control effect (activity level), Chenopodiaceae (Chenopodiaceae; dose 1000 g/ha) | weed control effect (activity level), Veronica polita (Veronica polita; dose 1000 g/ha)

O=C(Oc1cc(C(F)(F)F)nnc1-c1ccc(F)c(F)c1)c1ccc(Cl)nc1 [Compound 1-110]
10: weed control effect, Amaranthus retroflexus (activity level) (Amaranthus retroflexus; Dose 3000 g/ha) | weed control effect, Rorippa indica (activity level) (Rorippa indica; Dose 3000 g/ha) | weed control effect, Chenopodiaceae (activity level) (Chenopodiaceae; Dose 3000 g/ha) | weed control effect, Veronica polita (activity level) (Veronica polita; Dose 3000 g/ha)

Oc1cc(C(F)(F)F)nnc1-c1cnccc1F [Compound 964]
10: weed control effect (activity level), Amaranthus retroflexus (Amaranthus retroflexus; Dose 3000 g/ha) | weed control effect (activity level), Rorippa indica (Rorippa indica; Dose 3000 g/ha) | weed control effect (activity level), Chenopodiaceae (Chenopodiaceae; Dose 3000 g/ha) | weed control effect (activity level), Veronica polita (Veronica polita; Dose 3000 g/ha)

N#Cc1ccc(-c2nnc(C(F)(F)F)cc2O)cn1 [Compound 983]
10: weed control effect (activity level), Amaranthus retroflexus (Amaranthus retroflexus; Dose 3000 g/ha) | weed control effect (activity level), Rorippa indica (Rorippa indica; Dose 3000 g/ha) | weed control effect (activity level), Chenopodiaceae (Chenopodiaceae; Dose 3000 g/ha) | weed control effect (activity level), Veronica polita (Veronica polita; Dose 3000 g/ha)

Oc1cc(C(F)(F)F)nnc1-c1cc(Cl)ncc1Cl [Compound 224]
10: weed control effect (activity level), Amaranthus retroflexus (Amaranthus retroflexus; dose 2000 g/ha) | weed control effect (activity level), Rorippa indica (Rorippa indica; dose 2000 g/ha) | weed control effect (activity level), Chenopodiaceae (Chenopodiaceae; dose 2000 g/ha) | weed control effect (activity level), Veronica polita (Veronica polita; dose 2000 g/ha)

Cc1ccc(-c2nnc(C(F)(F)F)cc2O)c(C)c1 [Compound 77]
10: weed control effect (activity level), Amaranthus retroflexus (Amaranthus retroflexus; dose 2000 g/ha) | weed control effect (activity level), Rorippa indica (Rorippa indica; dose 2000 g/ha) | weed control effect (activity level), Chenopodiaceae (Chenopodiaceae; dose 2000 g/ha) | weed control effect (activity level), Veronica polita (Veronica polita; dose 2000 g/ha)

Oc1cc(C(F)(F)F)nnc1-c1c(F)ccnc1F [Compound 987]
10: weed control effect (activity level), Amaranthus retroflexus (Amaranthus retroflexus; Dose 3000 g/ha) | weed control effect (activity level), Rorippa indica (Rorippa indica; Dose 3000 g/ha) | weed control effect (activity level), Chenopodiaceae (Chenopodiaceae; Dose 3000 g/ha) | weed control effect (activity level), Veronica polita (Veronica polita; Dose 3000 g/ha)

Fc1ccc(-c2nnc(C(F)(F)F)cc2OCc2ccccc2)cc1 [Compound 1-209]
10: weed control effect, Amaranthus retroflexus (activity level) (Amaranthus retroflexus; Dose 3000 g/ha) | weed control effect, Rorippa indica (activity level) (Rorippa indica; Dose 3000 g/ha) | weed control effect, Chenopodiaceae (activity level) (Chenopodiaceae; Dose 3000 g/ha) | weed control effect, Veronica polita (activity level) (Veronica polita; Dose 3000 g/ha)

Oc1cc(C(F)(F)F)nnc1-c1c(Cl)ccnc1F [Compound 999]
10: weed control effect (activity level), Amaranthus retroflexus (Amaranthus retroflexus; Dose 3000 g/ha) | weed control effect (activity level), Rorippa indica (Rorippa indica; Dose 3000 g/ha) | weed control effect (activity level), Chenopodiaceae (Chenopodiaceae; Dose 3000 g/ha) | weed control effect (activity level), Veronica polita (Veronica polita; Dose 3000 g/ha)

Oc1cc(C(F)(F)F)nnc1-c1ccc2ncccc2c1 [Compound 714]
10: weed control effect (activity level), Amaranthus retroflexus (Amaranthus retroflexus; Dose 3000 g/ha) | weed control effect (activity level), Rorippa indica (Rorippa indica; Dose 3000 g/ha) | weed control effect (activity level), Chenopodiaceae (Chenopodiaceae; Dose 3000 g/ha) | weed control effect (activity level), Veronica polita (Veronica polita; Dose 3000 g/ha)

CCSC(=O)Oc1cc(C(F)(F)F)nnc1-c1ccc(F)c(F)c1 [Compound 1-42]
10: weed control effect, Amaranthus retroflexus (activity level) (Amaranthus retroflexus; Dose 3000 g/ha) | weed control effect, Rorippa indica (activity level) (Rorippa indica; Dose 3000 g/ha) | weed control effect, Chenopodiaceae (activity level) (Chenopodiaceae; Dose 3000 g/ha) | weed control effect, Veronica polita (activity level) (Veronica polita; Dose 3000 g/ha)
